Assay results as given in publication PMC10112521, “High-throughput AR dimerization assay identifies androgen disrupting chemicals and metabolites” (Frontiers in Toxicology, 2023).
Structures can show the parent of a compound that is named as a salt.

System: AR2 cells (HepG2-AR2)
Test: Alamar Blue (resazurin) post hoc cell viability / cytotoxicity assay in AR2 cells
Details: spid Viability, sheet antagonist_fits; for hill_tp (Hill model top): 0 where win_model is Constant
Method: For antagonist mode and cytotoxicity data, well-level normalized response (resp) was calculated as: resp=100 * RLU−bval/pval−bval where pval is the median RLU value of the MEC positive control wells (minimum four wells).

Row | Molecule | max_med (maximum median response) | hill_tp (Hill model top)
1 | C#C[C@]1(O)CC[C@H]2[C@@H]3CCC4=Cc5oncc5C[C@]4(C)[C@H]3CC[C@@]21C [Danazol] | 99.6979 | 119.707
2 | CCCCC(CC)COC(=O)c1ccc(O)cc1 (centres unmarked) [2-Ethylhexylparaben] | 99.7953 | 102.21
3 | O=S(=O)(c1ccc(O)cc1)c1ccc(O)cc1 [4,4'-Sulfonyldiphenol] | 24.7063 | 39.4827
4 | CC(C)(C#N)c1cc(Cn2cncn2)cc(C(C)(C)C#N)c1 [Anastrozole] | 9.832 | 0
5 | N#Cc1c(Cl)c(Cl)c(Cl)c(C#N)c1Cl [Chlorothalonil] | 85.6054 | 117.241
6 | CC(C)=CC1C(C(=O)OCc2cccc(Oc3ccccc3)c2)C1(C)C (centres unmarked) [Phenothrin] | 11.6591 | 28.3579
7 | O=C(O)c1ccc(O)cc1 [4-Hydroxybenzoic acid] | 5.145 | 0
8 | CCCCC(CC)COC(=O)c1ccccc1C(=O)O (centres unmarked) [Mono(2-ethylhexyl) phthalate] | 10.2899 | 5.023
9 | O=C(c1ccc(OCCN2CCCCC2)cc1)c1c(-c2ccc(O)cc2)sc2cc(O)ccc12 [Raloxifene hydrochloride] | 99.7657 | 
10 | CCCCC(CC)CN1C(=O)[C@@H]2[C@H](C1=O)[C@@H]1C=C[C@H]2C1 (some centres unmarked) [Octylbicycloheptenedicarboximide] | 1.86 | 0
11 | CC(C)(C)C(O)(CCc1ccc(Cl)cc1)Cn1cncn1 (centres unmarked) [Tebuconazole] | 20.78 | 45.6531
12 | O=c1c(O)c(-c2ccc(O)cc2)oc2cc(O)cc(O)c12 [Kaempferol] | 36.6036 | 30.9927
13 | COCC(=O)N(c1c(C)cccc1C)C(C)C(=O)OC (centres unmarked) [Metalaxyl] | 11.6523 | 11.8758
14 | O=c1oc2cc(O)ccc2c2oc3cc(O)ccc3c12 [Coumestrol] | 39.9111 | 51.0591
15 | CCCCCOC(=O)c1ccccc1C(=O)OCCCCC [Dipentyl phthalate] | 14.047 | 13.5743
16 | CCCCCCCCCCCCc1ccc(O)cc1 [4-Dodecylphenol] | 99.7202 | 99.8404
17 | Oc1c(Cl)c(Cl)c(Cl)c(Cl)c1Cl [Pentachlorophenol] | 53.4588 | 63.2778
18 | COP(=S)(OC)Oc1ccc(SC)c(C)c1 [Fenthion] | 20.1632 | 17.5948
19 | CSc1nnc(C(C)(C)C)c(=O)n1N [Metribuzin] | 29.1814 | 43.0001
20 | Abamectin | 81.1222 | 
21 | CC/C(=C(/CC)c1ccc(O)cc1)c1ccc(O)cc1 [Diethylstilbestrol] | 99.7753 | 119.773

Row | Molecule | max_med (maximum median response) | hill_tp (Hill model top)
22 | CC(C)[C@H](C(=O)O[C@H](C#N)c1cccc(Oc2ccccc2)c1)c1ccc(Cl)cc1 [Esfenvalerate] | -0.2527 | 
23 | CCCCC(CC)COC(=O)CCCCC(=O)OCC(CC)CCCC (centres unmarked) [Bis(2-ethylhexyl)hexanedioate] | 8.67 | 0
24 | C#CC(C)(C)NC(=O)c1cc(Cl)cc(Cl)c1 [Propyzamide] | 10.1701 | 0
25 | CCC(C)(C)c1ccc(O)cc1 [4-(2-Methylbutan-2-yl)phenol] | 17.1743 | 12.5636
26 | Clc1ccc(Cl)cc1 [p-Dichlorobenzene] | 4.77 | 
27 | Clc1ccc(C(c2ccc(Cl)cc2)C(Cl)(Cl)Cl)cc1 [Dichlorodiphenyltrichloroethane] | 73.7925 | 94.5035
28 | CCOP(=S)(OCC)Oc1cc(C)nc(C(C)C)n1 [Diazinon] | 6.875 | 0
29 | O=C1C(Cl)=C(Cl)C(=O)c2ccccc21 [Dichlone, dichlone] | 100 | 121.536
30 | C#C[C@]1(O)CC[C@H]2[C@@H]3CCc4cc(O)ccc4[C@H]3CC[C@@]21C [17alpha-Ethinylestradiol] | 47.5761 | 60.3321
31 | COP(=O)(NC(C)=O)SC (centres unmarked) [Acephate] | 10.7949 | 0
32 | CC(C)C(C(=O)OC(C#N)c1cccc(Oc2ccccc2)c1)c1ccc(Cl)cc1 (centres unmarked) [Fenvalerate] | 17.5112 | 13.0316
33 | C[Si]1(C)O[Si](C)(C)O[Si](C)(C)O[Si](C)(C)O1 [Octamethylcyclotetrasiloxane] | 28.4969 | 38.8496
34 | CCCCCCOC(=O)c1ccccc1C(=O)OCCCCCC [Dihexyl phthalate] | 14.953 | 18.2229
35 | CCC[CH2][Sn]([Cl])([CH2]CCC)[CH2]CCC [Tributylchlorostannane] | 99.8606 | 99.7567
36 | O=C(OC1CCCCC1)c1ccccc1C(=O)OC1CCCCC1 [Dicyclohexyl phthalate] | -2.0313 | 
37 | C[C@]12CC[C@@H]3c4ccc(O)cc4CC[C@H]3[C@@H]1CC[C@@H]2O [17beta-Estradiol] | 11.6181 | 15.1874
38 | O=C(c1ccccc1)c1ccc(O)cc1O [2,4-Dihydroxybenzophenone] | 13.9578 | 7.468
39 | COP(=S)(OC)Oc1nc(Cl)c(Cl)cc1Cl [Chlorpyrifos-methyl] | 15.7636 | 36.973
40 | CC(C)Oc1cccc(NC(=O)c2ccccc2C(F)(F)F)c1 [Flutolanil] | 9.82 | 12.8643
41 | COP(=S)(OC)SCN1C(=O)c2ccccc2C1=O [Phosmet] | 21.0825 | 27.9412
